The source of these data is patent US12279521B2, “Materials for organic electroluminescent devices” (Merck Patent GmbH, priority 2019, dated 2025).

In brackets after ≈: the same amount, converted by molar mass. Where two headings read alike, the source gives them in different places.

Data set [1] is described as follows: Solubility in organic solvents via HPTLC (after 24 hours and 7 days). In kind it is physicochemical. Conditions: for Solubility after 24 hours, Cyclohexylbenzene / Solubility after 24 hours, Mesitylene / Solubility after 24 hours, Tetralin / Solubility after 24 hours, Toluene / solubility at 24 h: room temperature; for Solubility after 7 days, Cyclohexylbenzene / Solubility after 7 days, Mesitylene / Solubility after 7 days, Tetralin / Solubility after 7 days, Toluene / solubility at 7 days: 7 days storage at room temperature; for solubility at 24 h: 25 °C; for solubility at 24 h / solubility at 7 days: organic solvent or mixture, thermodynamic from solid. The protocol: One way of processing the materials of the invention is from solution. In addition, it is a feature of materials of the invention that their […] stability is elevated, as apparent from the long-term solubility data in Table 1.
Method of Determining Solubility Via HPTLC
Sample preparation: The material is weighed out in two 25 mg portions (W1, W2), 0.5 ml of solvent is added, and the mixture is shaken at 60° C. for 60 minutes and then at 25° C. and 600 rpm for 24 h. When the solution is clear, more solid material is added until a saturated solution is formed. After being cooled to room temperature, the samples are filtered through a syringe filter (0.2 μm). The solutions are stored in glass vials at room temperature for 7 days, and the solubility is determined by HPTLC on days 1 and 7. For this purpose, the filtered solutions are diluted.
Calibration: Making up a standard solution: about 6 mg of substance are dissolved in 20 ml of 2-methyl-THF. If it is not possible to dissolve the material under these conditions, the concentration can be reduced. The stock solution is diluted for the calibration (standardization).
Chromatographic conditions (HPTLC): plate: HPTLC RP 18 F254, 10×20 cm eluent: methanol/2-methyl-THF 70/30 (V/V)
HPTLC measurement: The HPTLC plate is scanned by a TLC scanner, peaks are integrated and a calibration function is determined.

Data set [2] is described as follows: Baking of emission layer film at elevated temperature: state of film. The data set is classed as physicochemical. As to conditions: for State of film after baking at elevated temp.: EML mixture per Table 5. From the text: The production of the corresponding OLED components is described below.
The emission layer is composed of at least one matrix material (host material) and an emitting dopant (emitter). In addition, it is possible to use mixtures of a plurality of matrix materials and co-dopants. Details given in such a form as TMM-A (92%):dopant (8%) mean here that the material TMM-A is present in the emission layer in a proportion by weight of 92% and dopant in a proportion by weight of 8%. The mixture for the emission layer is dissolved in toluene or optionally chlorobenzene. The typical solids content of such solutions is about 17 g/I when, as here, the layer thickness of 60 nm which is typical of a device is to be achieved by means of spin-coating. The layers are spun on in an inert gas atmosphere, argon in the present case, and baked for 10 minutes.

[3] abbreviates: Ref. temp. 150, elevated temp. 180.
The mark [4] stands for this setting: cyclohexylbenzene, read-out: Solubility after 24 hours, Cyclohexylbenzene.
The mark [5] stands for this setting: mesitylene, read-out: Solubility after 24 hours, Mesitylene.
Setting [6] is: tetralin, read-out: Solubility after 24 hours, Tetralin.
[7] abbreviates: toluene, read-out: Solubility after 24 hours, Toluene.
Where [8] appears, read: cyclohexylbenzene, read-out: Solubility after 7 days, Cyclohexylbenzene.
Setting [9] is: mesitylene, read-out: Solubility after 7 days, Mesitylene.
Setting [10] is: tetralin, read-out: Solubility after 7 days, Tetralin.
[11] abbreviates: toluene, read-out: Solubility after 7 days, Toluene.
Setting [12] is: Ref. temp. 150, elevated temp. 170.
Setting [13] is: Ref. temp. 160, elevated temp. 170.
[14] abbreviates: Ref. temp. 160, elevated temp. 180.

As for `c1ccc(-c2cc(-c3ccccc3)cc(-c3cccc(-c4cccc(C5(c6cccc(-c7cccc(-c8cc(-c9ccccc9)cc(-c9ccccc9)c8)c7)c6)c6cc7c(cc6-c6c5ccc5c6-c6ccccc6C56c5ccccc5-c5ccccc56)OCO7)c4)c3)c2)cc1` [Compound M-0226], in data set [1] (cyclohexylbenzene), the “Solubility after 24 hours, Cyclohexylbenzene” value was less than 30 mg/mL and the “Solubility after 7 days, Cyclohexylbenzene” value was less than 25 mg/mL. In data set [1] (mesitylene), the “Solubility after 24 hours, Mesitylene” value is less than 20 mg/mL and the “Solubility after 7 days, Mesitylene” value was less than 20 mg/mL. In data set [1] (tetralin), the “Solubility after 24 hours, Tetralin” value was less than 30 mg/mL and the “Solubility after 7 days, Tetralin” value was less than 25 mg/mL. In data set [1] (toluene and mesitylene, versus B-2), the “solubility in toluene and mesitylene compared with B-2” value was “significantly better”. In data set [1] (toluene), the “Solubility after 24 hours, Toluene” value is less than 20 mg/mL and the “Solubility after 7 days, Toluene” value is less than 20 mg/mL. In data set [1] (versus B-2), the “long-term stability of the solutions compared with B-2” value was “significantly better”. The “State of film after baking at elevated temp.” value (“State of film after baking” below) in data set [2] (setting [3]) is listed as “clear”.
For `c1ccc(-c2cccc(-c3cc(-c4cccc(-c5ccccc5)c4)cc(C4(c5cc(-c6cccc(-c7ccccc7)c6)cc(-c6cccc(-c7ccccc7)c6)c5)c5ccccc5-c5ccc(-c6ccccc6)cc54)c3)c2)cc1` [Compound B-3, reference compound], the solubility at 24 h in data set [1] (setting [4]) was greater than 50 mg/mL; in data set [1] (setting [5]), less than 50 mg/mL; in data set [1] (setting [6]) it was less than 50 mg/mL; in data set [1] (setting [7]), greater than 50 mg/mL. Moreover, the solubility at 7 days was greater than 50 mg/mL in data set [1] (setting [8]), less than 40 mg/mL in data set [1] (setting [9]), less than 50 mg/mL in data set [1] (setting [10]) and greater than 50 mg/mL in data set [1] (setting [11]).
For `c1ccc(-c2cccc(-c3cc(-c4cccc(-c5ccccc5)c4)cc(C4(c5cc(-c6cccc(-c7ccccc7)c6)cc(-c6cccc(-c7ccccc7)c6)c5)c5ccccc5-c5c(-c6ccccc6)cccc54)c3)c2)cc1` [Compound M-0005], in data set [1] (cyclohexylbenzene), the “Solubility after 24 hours, Cyclohexylbenzene” value was greater than 50 mg/mL and the “Solubility after 7 days, Cyclohexylbenzene” value is greater than 50 mg/mL. Besides, the “solubility in cyclohexylbenzene compared with B-1” value in data set [1] (cyclohexylbenzene, versus B-1) is reported as “significantly better”. For the same compound, in data set [1] (mesitylene), the “Solubility after 24 hours, Mesitylene” value was greater than 50 mg/mL and the “Solubility after 7 days, Mesitylene” value is greater than 50 mg/mL. For the same compound, in data set [1] (mesitylene, versus B-1), the “long-term stability of the solution in mesitylene compared with B-1” value is on record as “significantly better”. In data set [1] (tetralin), the “Solubility after 24 hours, Tetralin” value is greater than 50 mg/mL and the “Solubility after 7 days, Tetralin” value was less than 50 mg/mL. Moreover, in data set [1] (toluene), the “Solubility after 24 hours, Toluene” value is greater than 50 mg/mL and the “Solubility after 7 days, Toluene” value is greater than 50 mg/mL. Also, the “State of film after baking” value in data set [2] (setting [12]) was “clear”. Moreover, the “State of film after baking” value in data set [2] (setting [13]) is on record as “clear”.
Take `c1ccc(-c2cccc(-c3cc(-c4ccccc4)cc(-c4cccc(C5(c6cccc(-c7cc(-c8ccccc8)cc(-c8cccc(-c9ccccc9)c8)c7)c6)c6ccccc6-c6ccccc65)c4)c3)c2)cc1` [Compound B-4, reference compound]: in data set [2] (setting [3]), the “State of film after baking” value is reported as “slightly cloudy”.
Consider `c1ccc(-c2cccc(-c3cc(-c4cccc(-c5ccccc5)c4)cc(C4(c5cc(-c6cccc(-c7ccccc7)c6)cc(-c6cccc(-c7ccccc7)c6)c5)c5ccccc5-c5ccccc54)c3)c2)cc1` [Compound B-1, reference compound], for which the solubility at 24 h in data set [1] (setting [4]) is less than 20 mg/mL; in data set [1] (setting [5]) it was greater than 50 mg/mL; in data set [1] (setting [6]), greater than 50 mg/mL; in data set [1] (setting [7]) it was greater than 50 mg/mL. The solubility at 7 days in data set [1] (setting [8]) was less than 20 mg/mL; in data set [1] (setting [9]) it was less than 40 mg/mL; in data set [1] (setting [10]), greater than 50 mg/mL; in data set [1] (setting [11]), greater than 50 mg/mL. Also, the results for the “State of film after baking” value in data set [2] (setting [3]), in data set [2] (setting [13]) and in data set [2] (setting [14]) were “cloudy”, “slightly cloudy” and “cloudy”, respectively.
In the case of `Cc1ccc2c(c1)-c1c(-c3cccc(-c4ccccc4)c3)cccc1C2(c1cccc(-c2cccc3c2-c2ccccc2C3(C)C)c1)c1cccc(-c2cccc3c2-c2ccccc2C3(C)C)c1` [Compound M-0172], in data set [1] (cyclohexylbenzene), the “Solubility after 24 hours, Cyclohexylbenzene” value was less than 40 mg/mL and the “Solubility after 7 days, Cyclohexylbenzene” value was less than 40 mg/mL. In data set [1] (mesitylene), the “Solubility after 24 hours, Mesitylene” value is less than 30 mg/mL and the “Solubility after 7 days, Mesitylene” value was less than 30 mg/mL. Further, in data set [1] (tetralin), the “Solubility after 24 hours, Tetralin” value was less than 40 mg/mL and the “Solubility after 7 days, Tetralin” value is less than 40 mg/mL. Moreover, in data set [1] (toluene), the “Solubility after 24 hours, Toluene” value was less than 30 mg/mL and the “Solubility after 7 days, Toluene” value was less than 30 mg/mL. For the same compound, the “State of film after baking” value in data set [2] (setting [12]) is listed as “clear”.
Consider `Cc1cc(C)c(-c2cccc3c2-c2ccccc2C3(c2cc(-c3cc(-c4ccc(C(C)(C)C)cc4)cc(-c4ccc(C(C)(C)C)cc4)c3)cc(-c3cc(-c4ccc(C(C)(C)C)cc4)cc(-c4ccc(C(C)(C)C)cc4)c3)c2)c2cc(-c3cc(-c4ccc(C(C)(C)C)cc4)cc(-c4ccc(C(C)(C)C)cc4)c3)cc(-c3cc(-c4ccc(C(C)(C)C)cc4)cc(-c4ccc(C(C)(C)C)cc4)c3)c2)c(C)c1` [Compound M-0086], for which the solubility at 24 h in data set [1] (setting [4]), in data set [1] (setting [5]), in data set [1] (setting [6]) and in data set [1] (setting [7]) was greater than 50 mg/mL throughout. Moreover, the solubility at 7 days in data set [1] (setting [8]), in data set [1] (setting [9]), in data set [1] (setting [10]) and in data set [1] (setting [11]) was greater than 50 mg/mL throughout. For the same compound, the “State of film after baking” value in data set [2] (setting [3]) is reported as “clear”.
For `c1ccc(-c2cc(-c3ccccc3)cc(-c3cccc(-c4cccc(C5(c6cccc(-c7cccc(-c8cc(-c9ccccc9)cc(-c9ccccc9)c8)c7)c6)c6ccccc6-c6c(-c7ccccc7)cccc65)c4)c3)c2)cc1` [Compound M-0002], in data set [1] (cyclohexylbenzene), the “Solubility after 24 hours, Cyclohexylbenzene” value is less than 1 mg/mL and the “Solubility after 7 days, Cyclohexylbenzene” value was less than 1 mg/mL. Also, in data set [1] (mesitylene), the “Solubility after 24 hours, Mesitylene” value is greater than 50 mg/mL and the “Solubility after 7 days, Mesitylene” value was found to be 50 mg/mL (≈ 49.8 mM). In addition, in data set [1] (tetralin), the “Solubility after 24 hours, Tetralin” value is greater than 50 mg/mL and the “Solubility after 7 days, Tetralin” value is greater than 50 mg/mL. In addition, in data set [1] (toluene), the “Solubility after 24 hours, Toluene” value was greater than 50 mg/mL and the “Solubility after 7 days, Toluene” value was greater than 50 mg/mL. Moreover, the “State of film after baking” value in data set [2] (setting [3]) is recorded as “clear”. In data set [2] (setting [14]), the “State of film after baking” value was “clear”. In addition, the “baking of the layer at higher temperature, cloudiness, compared with B-2” value in data set [2] (versus B-2) is given as “can be baked at higher temperature without cloudiness”.
For the compound `c1ccc(-c2cc(-c3ccccc3)cc(-c3cccc(-c4cccc(C5(c6cccc(-c7cccc(-c8cc(-c9ccccc9)cc(-c9ccccc9)c8)c7)c6)c6ccccc6-c6c(-c7cccc(-c8ccccc8)c7)cccc65)c4)c3)c2)cc1` [Compound M-0162], the solubility at 24 h in data set [1] (setting [4]) was less than 50 mg/mL; in data set [1] (setting [5]), greater than 50 mg/mL; in data set [1] (setting [6]), greater than 50 mg/mL; in data set [1] (setting [7]) it was greater than 50 mg/mL. The solubility at 7 days in data set [1] (setting [8]) was less than 50 mg/mL; in data set [1] (setting [9]) it was greater than 50 mg/mL; in data set [1] (setting [10]), greater than 50 mg/mL; in data set [1] (setting [11]) it was greater than 50 mg/mL. Further, the “State of film after baking” value in data set [2] (setting [3]) is “clear”.
Take `c1ccc(-c2cc(-c3ccccc3)cc(-c3cccc(-c4cccc(C5(c6cccc(-c7cccc(-c8cc(-c9ccccc9)cc(-c9ccccc9)c8)c7)c6)c6ccccc6-c6ccccc65)c4)c3)c2)cc1` [Compound B-2, reference compound]: the solubility at 24 h in data set [1] (setting [4]) is greater than 50 mg/mL; in data set [1] (setting [5]) it was less than 1 mg/mL; in data set [1] (setting [6]), greater than 50 mg/mL; in data set [1] (setting [7]), less than 1 mg/mL. Moreover, the solubility at 7 days in data set [1] (setting [8]) was less than 1 mg/mL; in data set [1] (setting [9]), less than 1 mg/mL; in data set [1] (setting [10]), less than 20 mg/mL; in data set [1] (setting [11]), less than 1 mg/mL. Also, the “State of film after baking” value in data set [2] (setting [14]) is recorded as “slightly cloudy”.
